For one assay, the system named is TNBC BT-549 cells. The experiment in a line: Cell survival / cell inhibition (MTT cell cytotoxicity assay) after 24 h treatment with photosensitizer and/or chemotherapeutic agent, dark or light-irradiated. It counts as cell-based, human. To be noted: for viability at 0.1 µM / viability at 0.01 µM: paclitaxel; for viability at 0.1 µM: high end of 10-100 nM, read-out: cell survival, drug only (end of decrease); for viability at 0.01 µM: low end of 10-100 nM, read-out: cell survival, drug only (start of decrease). A general note: Tetrazolium assays rely on reduction of a dye to a coloured formazan, in cell work by metabolically active cells.

The next assay relates to human TNBC BT-549 cells. The experiment in a line: Fluorescence microscopy (Hoechst 33258) of cell morphology / cell death pathway. Particulars: paclitaxel 50 nM, unirradiated (FIG. 18I). In kind it is cell-based.
Assay [1] has as its system human triple-negative breast cancer (TNBC) BT-549 cells. The experiment in a line: Transmission electron microscopy of cell ultrastructure. In kind it is cell-based. Particulars: paclitaxel 50 nM. The protocol:
Irregularly shaped nuclear membrane is apparent in treated cells in the dark or in the presence of light. Light dose in 30 seconds=0.48 J cm^−2. Concentrations: PSs=50 nM; paclitaxel=50 nM; and, fluororuracil=25 μM.
Cells were cultured to confluence in a petri dish ([…] in diameter), treated for 24 hrs with 500 nM of PS, then irradiated for 2 minutes as above. After 12 photosensitization 24 hours later, cells were scraped gently in the dark, fixed in 2.5% glutaraldehyde in 0.1M [COMPOUND LEFT OUT] buffer, then post-fixed with 1% osmium tetroxide (containing 0.8% [COMPOUND LEFT OUT], treated with 2% aqueous uranyl acetate, and subsequently dehydrated in gradient concentrations (50-100%) of varying ethanol:water mixtures. The resulting pellets were embedded in resin and consequently cut with an ultramicrotome to a 70 nm thickness, then viewed using Tecnai T20 transmission electron microscope.
Transmission electron micrographs of TNBC cells clearly differentiated distinct cellular compartments, in particular, of nuclear components and plasma membrane during treatment as shown in FIG. 19. A typical normal organelle morphology with smooth-contoured cellular plasma membrane is depicted in TNBC cells irradiated with light without treatment with PS nor chemotherapeutic agent (FIG. 19A). […]

The subject of assay [2] is human gastric adenocarcinoma AGS cell line. Particulars: another study; cited from earlier work.
Where [3] appears, read: Homo sapiens, BT-549, 24 h, dark.
The mark [4] stands for this setting: Homo sapiens, BT-549, 24 h, light.

“Also recorded” adds a separate entry of the source. Like-named read-outs stand apart in the source and are kept apart here.

As to `CC(=O)O[C@H]1C(=O)[C@@]2(C)[C@H]([C@H](OC(=O)c3ccccc3)[C@]3(O)C[C@H](OC(=O)[C@H](O)[C@@H](NC(=O)c4ccccc4)c4ccccc4)C(C)=C1C3(C)C)[C@]1(OC(C)=O)CO[C@@H]1C[C@@H]2O` [paclitaxel, reference compound], in the assay with TNBC BT-549 cells (Homo sapiens, BT-549, 24 h, paclitaxel 50 nM, dark, read-out: cell survival, drug only), the viability at 0.05 µM came to 57%. For the same compound, in the assay on TNBC BT-549 cells (setting [3]), the viability at 0.1 µM turned out to be 49% and the viability at 0.01 µM is 64%. Further, in the assay on TNBC BT-549 cells (setting [4]), the viability at 0.1 µM came out at 52% and the viability at 0.01 µM turned out to be 66%. The “average increase in cell survival upon light irradiation compared to unirradiated cells, drug only” value in the assay on TNBC BT-549 cells (drug alone, light vs dark) came out at 4%. For the same compound, the “cell morphology, paclitaxel-treated” value in the assay with human TNBC BT-549 cells is “shrunk cells and chromatin fragmentation are evident; also recorded: Shrunk cells and chromatin condensation are evident”. For the same compound, in assay [1] (dark (FIG. 19C)), the “ultrastructure, paclitaxel in the dark” value is “Irregularly shaped nuclear envelope; also recorded: loss of nuclear circularity and formation of chromatin condensation”. Also, in assay [1] (light 0.48 J/cm^2 (FIG. 19E)), the “ultrastructure, paclitaxel irradiated” value was “smaller nuclei in multi-nucleated cells indicating chromosomal condensation; also recorded: split and fragmented with many atypical vesicular components in the cytosolic compartment”. The “cell death modes triggered” value in assay [2] was “apoptosis, autophagy, and mitotic catastrophe were triggered”.

These data come from patent US20260306633A1, “A COMBINATION THERAPY FOR CANCER TREATMENT” (Purdue Research Foundation, priority 2023, published 2026).
